Reference: patent US10835500B2, “Medicament for accelerated wound healing” (Symrise AG, priority 2014, dated 2020)

What was measured:
Format in all cases: cell-based, human
[1] = test system: IL-6, IL-8, tumor necrosis factor; test: Quantitative real-time PCR of the other interleukins in HaCaT cells; conditions: 6 or 24 hours, 500 μM
Experimental: (§1) In order to investigate interleukin secretion, quantitative real-time PCR was first carried out. For this purpose, RNA from HaCaT cells was used that had previously been stimulated for 6 or 24 hours with Sandalore®. Detection was carried out with specific primers of various interleukins (IL-1α, IL-1β, IL-6, IL-8) and tumor necrosis factor (TNF▪). […] In order to corroborate the results, an ELISA assay was carried out, in which the secreted interleukins in the supernatant of the cells can be detected by means of an immunological reaction. By means of the assay used, secretion of the interleukins (IL-1α, IL-1β, IL-2, IL-4, IL-6, IL-8, IL-10, IL-12, and IL-17α), TNFα, γ-interferon (IFNγ), and granulocyte macrophage colony-stimulating factor (GMCSF) was investigated.
(§2) Investigation of interleukin secretion and phosphorylation of Akt protein kinase after Sandalore® stimulation. A) Investigation of the regulation of interleukins in HaCaT cells by means of qRT-PCR after stimulation with Sandalore® (500 μM) for 6 h and 24 h. 0.1% DMSO was used as a control. GAPDH was used as a reference gene, and the relative expression between untreated and stimulated cells was determined. Mean values including standard error. n=3 experiments. […] The measured optical density of the treated cells at 450 nm was expressed relative to the background. […]

[2] = test system: JNK/SAPK; test: Western Blot, phosphorylation of JNK/SAPK in HaCaT cells; conditions: 500 μM, 0-30 min
Experimental: In the following, an investigation was to be conducted to determine whether a MAPK signalling pathway is activated by Sandalore® stimulation in skin cells, and if so, which pathway is involved. For detection, HaCaT cells were stimulated for 0-30 min with 500 μM of Sandalore®, and the proteins were then isolated and used in Western Blot assays.
Effect of Sandalore® stimulation on phosphorylation of MAP kinases in skin cells. A) Western Blot for investigating the phosphorylation of the MAP kinases in HaCaT cells stimulated for 0, 5, 15 and 30 min with Sandalore®(500 μM). In order to confirm uniform protein volume, ▪-tubulin was used as a control. ERK1/2: 42/44 kDa; p38: 43 kDa; JNK/SAPK: 46/54 kDA; ▪-tubulin: 52 kDa. B) Quantitative evaluation of p38 and ERK1/2 phosphorylation of HaCaT cells stimulated for 30 min with Sandalore®(500 μM) or additionally with the p38 inhibitor 5B203580 (10 μM) or ERK1/2 inhibitor U0126 (10 μM). For evaluation, the ratio of the phosphorylated (p) and unphosphorylated proteins was established and compared to that of untreated cells. Mean values including standard error. Mann-Whitney U test. *: p<0.05; ***: p<0.001. In C), the inhibitors of the respective other MAP kinase were used, and phosphorylation was compared to the cells stimulated with Sandalore® (500 μM) alone. Mean values including standard error. Mann-Whitney U test. *: p<0.05. […]

[3] = test system: cAMP content of HaCaT cells; test: cAMP assay (cAMP-Glo) in HaCaT cells
Experimental: In order to identify the calcium channel through which calcium ions flow from the outside into the cytosol of the skin cells, the CNG channel blocker L-cis-diltiazem was used. […] An additional cAMP assay was conducted in order to verify the data of pharmacological characterization by means of the calcium imaging technique. For this purpose, HaCaT cells with various Sandalore® concentrations were stimulated, and cAMP content was determined.
Pharmacological characterization of Sandalore®-induced signal cascade in human keratinocytes. A)-D). Shown are representative calcium imaging traces of primary keratinocytes in the presence of a blocker (blue). The horizontal bars correspond to the application times. 100 μM of ATP was used at the end of each measurement as a positive control stimulus. A) Measurement with calcium-free extracellular solution (+10 mM EGTA). B) Measurement with the adenylyl cyclase blocker SQ-22536 (100 μM). C) Use of the phospholipase-C blocker U-73122 (10 μM). 100 μM of histamine was taken as a positive control. D) Measurement with the CNG channel blocker L-cis-diltiazem (150 μM). E) Overview of pharmacological measurement of HaCaT cells and primary keratinocytes (Kera). […] Significance was determined between HaCaT cells stimulated with Sandalore® and stimulated with an equivalent volume of DMSO (0.2%). […]

[4] = test system: protein kinase Akt; test: Western Blot, phosphorylation of protein kinase Akt in HaCaT cells
Experimental: In addition to the phosphorylated kinases already detected, the phosphorylation of protein kinase Akt was investigated. For this purpose, HaCaT cells were stimulated with Sandalore® for 0, 5, 15 and 30 min, and phosphorylation was investigated by means of Western Blot assays and special antibodies to the unphosphorylated or phosphorylated form of the Akt-protein.
Investigation of interleukin secretion and phosphorylation of Akt protein kinase after Sandalore® stimulation. A) Investigation of the regulation of interleukins in HaCaT cells by means of qRT-PCR after stimulation with Sandalore® (500 μM) for 6 h and 24 h. 0.1% DMSO was used as a control. GAPDH was used as a reference gene, and the relative expression between untreated and stimulated cells was determined. Mean values including standard error. n=3 experiments. B) ELISA assay for the detection of interleukins in the supernatant of HaCaT cells stimulated for 24 h with Sandalore® (500 μM). 0.1% DMSO was used as a control. The measured optical density of the treated cells at 450 nm was expressed relative to the background. Supernatants of three independent stimulations were used. Mean values including standard error. Mann-Whitney U test. *: p<0.05. C) Western Blot for investigating phosphorylation of Akt protein kinase by HaCaT cells stimulated for 0, 5, 15, and 30 min with Sandalore® (500 μM). […]

[5] = test system: IL-1β; test: Quantitative real-time PCR of IL-1β in HaCaT cells; conditions: after 24 hours, 500 μM
Experimental: as §1, §2

Q: Which “expression rate of the other interleukins” value [1] does the source give for `CC1=CCC(CCC(C)C(C)O)C1(C)C` (stereo not shown) [Sandalore®] here?
A: no increase in the expression rate

Q: What about the “phosphorylation of JNK/SAPK” value [2] of the same compound?
A: no phosphorylation of JNK/SAPK

Q: What about the cAMP content ([3]; 10-minute stimulation with various concentrations) of the same compound?
A: dose-dependent cAMP increase

Q: And the EC50 ([3]; 10-minute stimulation, 1 μM-10,000 μM, read-out: EC50 value of cAMP increase)?
A: 197 µM

Q: What about the “time until Akt kinase was phosphorylated” value ([4]; 500 μM, 0, 5, 15 and 30 min) of the same compound?
A: ≤ 5 min

Q: What about the “activation of the protein kinase Akt” value ([4]; summary statement) of the same compound?
A: activated

Q: What about the “increase of expression of IL-1β relative to the control (0.1% DMSO)” value [5] of the same compound?
A: approx. 1700%
